Results: US20260042764A1, “COMPOSITIONS AND METHODS FOR INHIBITION OF KRAS” (TheRas, Inc., priority 2022, published 2026)
pIC50: −log10 of the molar value.

How the values were obtained:
[1] = system: GP2d cells (KRAS G12D); experiment: Cell-based pERK HTRF assay in GP2d cell (Biological Example 2); details: GP2d (KRAS G12D) cells
Procedure, shortened: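 60 min compound, 0.25% DMSO, 9-pt half-log curve from 1 μM or 100 nM; DMEM/10% FBS.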

[2] = target: T1, Avi-KRAS G12D (2-169) GTP/RAF1 RBD-3xFLAG (51-131) (Homo sapiens, UniProt P01116, G12D); experiment: Raf1-KRAS G12D-GTP disruption HTRF assay (Biological Example 3); format: binding; details: KRAS G12D, GTP-loaded
T1 construct: Avi-KRAS G12D (2-169)
T1 sequence (P01116 2-169 isoform P01116-2 G12D): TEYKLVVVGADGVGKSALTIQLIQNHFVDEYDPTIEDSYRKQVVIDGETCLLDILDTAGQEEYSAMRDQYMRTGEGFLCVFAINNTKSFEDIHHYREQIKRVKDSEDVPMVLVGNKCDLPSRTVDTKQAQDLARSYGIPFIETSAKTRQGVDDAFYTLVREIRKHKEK
Procedure, shortened: (§1)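 Each KRAS-GTP/RAF1 RBD complex at 50 nM, with 75 nM 3xFLAG-RAF1 RBD (51-131)-Avi, in 50 mM Tris pH 7.5, 100 mM NaCl, 5 mM MgCl2, 0.1% BSA, 0.01% Tween 20, 10% DMSO. Compounds titrated from 30 μM, 10-point 3x series; 1 h at room temperature with shaking. HTRF read, activity as percent of DMSO.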

[3] = target: T2, Avi-KRAS WT (2-169) GTP/RAF1 RBD-3xFLAG (51-131) (Homo sapiens, UniProt P01116); experiment: Raf1-KRAS WT-GTP disruption HTRF assay (Biological Example 3); format: binding; details: KRAS WT, GTP-loaded
T2 construct: Avi-KRAS WT (2-169)
T2 sequence (P01116 2-169 isoform P01116-2): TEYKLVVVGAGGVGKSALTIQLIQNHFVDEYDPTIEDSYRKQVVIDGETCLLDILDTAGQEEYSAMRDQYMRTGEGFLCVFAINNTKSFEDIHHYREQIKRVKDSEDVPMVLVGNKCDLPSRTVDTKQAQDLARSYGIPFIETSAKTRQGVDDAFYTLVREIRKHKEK
Procedure, shortened: as §1

SMILES	pIC50 ([1]; GP2d)	pIC50 ([1]; GP2d, pERK HTRF)	pIC50 [2]	pIC50 [3]	pIC50 ([1]; GP2d, pERK HTRF, class symbols)	pIC50 [1]	pIC50 ([1]; pERK HTRF)
CCC(=O)N1CC[C@@H](N(CC)c2nc(OC[C@@]34CCCN3C[C@H](F)C4)nc3c(F)c(-c4ccc(F)c5sc(N)c(C#N)c45)c(C(F)(F)F)cc23)C1 [Compound 327]	> 7.00	> 7.00	6.00 to 7.00	6.00 to 7.00			
CCN(c1nc(OC[C@@]23CCCN2C[C@H](F)C3)nc2c(F)c(-c3ccc(F)c4sc(N)c(C#N)c34)c(C(F)(F)F)cc12)[C@H]1CCN(C(=O)C2C[C@@H]2F)C1 (some centres unmarked) [Compound 692]	> 7.00		≥ 7.00	≥ 7.00	> 7.00		
CCN(c1nc(OC[C@@]23CCCN2C[C@H](F)C3)nc2c(F)c(-c3ccc(F)c4sc(N)c(C#N)c34)c(C(F)(F)F)cc12)[C@H]1CC(=O)N(C)C1 (atropisomer, axis not shown) [Compound 614]	> 7.00		6.00 to 7.00	6.00 to 7.00	> 7.00		
CCN(c1nc(OC[C@@]23CCCN2C[C@H](F)C3)nc2c(F)c(-c3ccc(F)c4sc(N)c(C#N)c34)c(C(F)(F)F)cc12)[C@H]1CCN(C(=O)CC(F)F)C1 (atropisomer, axis not shown) [Compound 611]	> 7.00		≥ 7.00	6.00 to 7.00	> 7.00		
CCN(c1nc(OC[C@@]23CCCN2C[C@H](F)C3)nc2c(F)c(-c3ccc(F)c4sc(N)c(C#N)c34)c(C(F)(F)F)cc12)[C@H]1CCN(C(=O)[C@H]2CCO2)C1 (atropisomer, axis not shown) [Compound 577]	> 7.00		≥ 7.00	≥ 7.00	> 7.00		
CCN(c1nc(OC[C@]23CCCN2C[C@H](F)C3)nc2c(F)c(-c3ccc(F)c4sc(N)c(C#N)c34)c(C(F)(F)F)cc12)[C@H]1CCN(C(=O)C(C)C)C1 [Compound 705]	> 7.00		6.00 to 7.00	6.00 to 7.00	> 7.00		
CC(=O)N1CC(N(C)c2nc(OCC34CCCN3CC(F)C4)nc3c(F)c(-c4ccc(F)c5sc(N)c(C#N)c45)c(C(F)(F)F)cc23)CC1C (centres unmarked) [Compound 291]			6.00 to 7.00	6.00 to 7.00		> 7.00	> 7.00
C=C(C)C(=O)N1CC[C@H](N(CC)c2nc(OC[C@@]34CCCN3C[C@H](F)C4)nc3c(F)c(-c4ccc(F)c5sc(N)c(C#N)c45)c(C(F)(F)F)cc23)C1 (atropisomer, axis not shown) [Compound 673]	> 7.00		≥ 7.00	6.00 to 7.00	> 7.00		
CC(=O)N1CC[C@H](N(c2nc(OC[C@@]34CCCN3C[C@H](F)C4)nc3c(F)c(-c4ccc(F)c5sc(N)c(C#N)c45)c(C(F)(F)F)cc23)C2CC2)C1 (atropisomer, axis not shown) [Compound 608]	> 7.00		6.00 to 7.00	5.00 to 6.00	> 7.00		
CCN(c1nc(OC[C@@]23CCCN2C[C@H](F)C3)nc2c(F)c(-c3ccc(F)c4sc(N)c(C#N)c34)c(C(F)(F)F)cc12)[C@H]1CCN(C(=O)N(C)C)[C@@H]1C (atropisomer, axis not shown) [Compound 749]	> 7.00		≥ 7.00	≥ 7.00	> 7.00		
CCN(c1nc(OC[C@@]23CCCN2C[C@H](F)C3)nc2c(F)c(-c3ccc(F)c4sc(N)c(C#N)c34)c(C(F)(F)F)cc12)[C@H]1CCN(C(=O)N2CC(OC)C2)C1 (atropisomer, axis not shown) [Compound 607]	> 7.00		≥ 7.00	≥ 7.00	> 7.00		
CCN(c1nc(OC[C@@]23CCCN2C[C@H](F)C3)nc2c(F)c(-c3ccc(F)c4sc(N)c(C#N)c34)c(C(F)(F)F)cc12)[C@H]1C[C@@H](C)N(C(=O)[C@H]2CCO2)C1 (atropisomer, axis not shown) [Compound 752]	> 7.00		6.00 to 7.00	6.00 to 7.00	> 7.00		
CCN(c1nc(OC[C@@]23CCCN2C[C@H](F)C3)nc2c(F)c(-c3ccc(F)c4sc(N)c(C#N)c34)c(C(F)(F)F)cc12)[C@@H]1CCN(C(=O)C2CC2)C1 [Compound 329]	> 7.00	> 7.00	6.00 to 7.00	6.00 to 7.00			
CN(C)C(=O)c1cc2n(n1)CCN(c1nc(OC[C@@]34CCCN3C[C@H](F)C4)nc3c(F)c(-c4ccc(F)c5sc(N)c(C#N)c45)c(C(F)(F)F)cc13)C2 [Compound 355]	> 7.00	> 7.00	6.00 to 7.00	5.00 to 6.00			
CCN(c1nc(OC[C@@]23CCCN2C[C@H](F)C3)nc2c(F)c(-c3ccc(F)c4sc(N)c(C#N)c34)c(C(F)(F)F)cc12)[C@H]1CCN(C(=O)OC)C1 [Compound 394]	> 7.00	> 7.00	6.00 to 7.00	6.00 to 7.00			
CCN(c1nc(OC[C@@]23CCCN2C[C@H](F)C3)nc2c(F)c(-c3ccc(F)c4sc(N)c(C#N)c34)c(C(F)(F)F)cc12)[C@H]1CCN(C(=O)C2CN(C(C)=O)C2)C1 (atropisomer, axis not shown) [Compound 638]	> 7.00		≥ 7.00	6.00 to 7.00	> 7.00		
CCN1C[C@@H](N(C)c2nc(OC[C@@]34CCCN3C[C@H](F)C4)nc3c(F)c(-c4ccc(F)c5sc(N)c(C#N)c45)c(C(F)(F)F)cc23)CC1=O (atropisomer, axis not shown) [Compound 636]	> 7.00		6.00 to 7.00	6.00 to 7.00	> 7.00		
CCN(c1nc(OC[C@@]23CCCN2C[C@H](F)C3)nc2c(F)c(-c3ccc(F)c4sc(N)c(C#N)c34)c(C(F)(F)F)cc12)[C@H]1CCN(C(=O)C2CC2)C1 [Compound 331]	> 7.00	> 7.00	6.00 to 7.00	6.00 to 7.00			
CCN(c1nc(OC[C@@]23CCCN2C[C@H](F)C3)nc2c(F)c(-c3ccc(F)c4sc(N)c(C#N)c34)c(C(F)(F)F)cc12)[C@H]1CCN(C(=O)[C@@H]2CCO2)C1 (atropisomer, axis not shown) [Compound 603]	> 7.00		≥ 7.00	6.00 to 7.00	> 7.00		
CCN(c1nc(OC[C@@H]2C[C@@H](OC)CN2C)nc2c(F)c(-c3ccc(F)c4sc(N)c(C#N)c34)c(C(F)(F)F)cc12)[C@H]1CCN(C(=O)C(C)C)C1 [Compound 706]	> 7.00		6.00 to 7.00	5.00 to 6.00	> 7.00		
CCN(c1nc(OC[C@@]23CCCN2C[C@H](F)C3)nc2c(F)c(-c3ccc(F)c4sc(N)c(C#N)c34)c(C(F)(F)F)cc12)[C@@H]1CCN(C(=O)C(C)C)C1 [Compound 328]	> 7.00	> 7.00	6.00 to 7.00	6.00 to 7.00			
N#Cc1c(N)sc2c(F)ccc(-c3c(C(F)(F)F)cc4c(N5CCCC[C@@H](O)C5)nc(OC[C@@]56CCCN5C[C@H](F)C6)nc4c3F)c12 [Compound 286]	> 7.00	> 7.00	6.00 to 7.00	6.00 to 7.00			
CCN(c1nc(OC[C@@]23CCCN2C[C@H](F)C3)nc2c(F)c(-c3ccc(F)c4sc(N)c(C#N)c34)c(C(F)(F)F)cc12)[C@H]1CCN(C(=O)C2CC2(F)F)C1 (some centres unmarked) [Compound 581]	> 7.00		≥ 7.00	6.00 to 7.00	> 7.00		
CCC(=O)N1CC[C@@H](N(C)c2nc(OC[C@@]34CCCN3C[C@H](F)C4)nc3c(F)c(-c4ccc(F)c5sc(N)c(C#N)c45)c(C(F)(F)F)cc23)[C@H]1C (atropisomer, axis not shown) [Compound 335]	> 7.00		6.00 to 7.00	6.00 to 7.00			> 7.00
N#Cc1c(N)sc2c(F)ccc(-c3c(C(F)(F)F)cc4c(N5CC6CC(C5)O6)nc(OC[C@@]56CCCN5C[C@H](F)C6)nc4c3F)c12 [Compound 145]	> 7.00	> 7.00	6.00 to 7.00	5.00 to 6.00			
C[C@H](c1cccnc1N)N(C)c1nc(OC[C@@]23CCCN2C[C@H](F)C3)nc2c(F)c(-c3ccc(F)c4sc(N)c(C#N)c34)c(C(F)(F)F)cc12 (atropisomer, axis not shown) [Compound 600]	> 7.00		≥ 7.00	6.00 to 7.00	> 7.00		
Cc1c(C(=O)N2CCCC2)nn2c1CN(c1nc(OCC34CCCN3CC(F)C4)nc3c(F)c(-c4ccc(F)c5sc(N)c(C#N)c45)c(C(F)(F)F)cc13)CC2 (centres unmarked) [Compound 744]	> 7.00		6.00 to 7.00	6.00 to 7.00	> 7.00		
N#Cc1c(N)sc2c(F)ccc(-c3c(C(F)(F)F)cc4c(N5CCn6nc(C(=O)N7CCOCC7)cc6C5)nc(OCC56CCCN5CC(F)C6)nc4c3F)c12 (centres unmarked) [Compound 646]	> 7.00		6.00 to 7.00	5.00 to 6.00	> 7.00		
N#Cc1c(N)sc2c(F)ccc(-c3c(C(F)(F)F)cc4c(N5CCNS(=O)(=O)CC5)nc(OC[C@@]56CCCN5C[C@H](F)C6)nc4c3F)c12 [Compound 245]	> 7.00	> 7.00	6.00 to 7.00	6.00 to 7.00			
